Data published in US20050197406A1, “Method of treatment of lung cancer” (priority 1999, published 2005).
Counter-ions that a name gives are not always drawn.

How the values were obtained:
[1] = test system: normal cells; experiment: In vitro experiments using cell lines of various tissue origins (toxicity to normal cells); assay type: cell-based
[2] = test system: 60 cancer cell lines; experiment: NCI in vitro screen of 60 cancer cell lines (sulforhodamine B assay); assay type: cell-based; conditions: Homo sapiens; mean across all cells of NCI60; read-out: LC50 (log 10 molar concentration causing 50% lethality), mean across all cells (converted)
Method: The NCI assays are performed under standardized conditions not designed to mimic the conditions of dosing and use the sulforhodamine B assay as the endpoint. […] When compared to many FDA approved chemotherapeutic agents for common cancer types with publicly available data, none of the compared approved drugs exceed the mean of β-lapachone across all cells and only mitoxantrone equals it. FIG. 2.

[3] = test system: A549 human lung cancer cells; assay type: in vivo; conditions: 60 mg/kg intraperitoneally every three days, 8 treatments
Method: The animals are randomized into three groups of seven animals per group. […] Mean tumor volume is then analyzed.

[4] = test system: A549 human lung cancer cells; experiment: A549 human lung cancer xenograft model, β-lapachone alone or with gemcitabine; assay type: in vivo; conditions: for toxicity: female, athymic nude (Ncr), mouse, in vivo, ip; for retardation of tumor growth, monotherapy: β-lapachone 60 mg/kg or gemcitabine 120 mg/kg alone, e.g. days 24 and 27
Method: Mice receive a total of eight treatments. Mean tumor volume is analyzed; data points in FIG. 4 represent the arithmetic mean +/−SEM of five tumors.

[5] = test system: 60 cancer cell lines; conditions: FDA approved chemotherapeutic agents, publicly available data; cited from earlier work
[6] = ip every three days, eight treatments

Row | Compound | toxicity to normal cells [1] | CC50 [2] [µM] | reduction of mean tumor volume [3] | toxicity [4] | retardation of tumor growth, monotherapy [4, 6] | retardation of tumor growth, 60 mg/kg compared with 40 mg/kg ([4]; β-lapachone in 40% HPBCD, ip every three days, eight treatments) | mean LC50 across all cells compared with that of β-lapachone [5]
1 | CC1(C)CCC2=C(O1)c1ccccc1C(=O)C2=O [β-lapachone, 3,4-dihydro-2,2-dimethyl-2H-naphtho[1,2-b]pyran-5,6-dione] | relatively non-toxic to normal cells | 8.51 | approximately 50% | No significant toxicity | retarded tumor growth to a similar extent | more effective at retarding tumor growth | –
2 | O=C1c2c(O)ccc(O)c2C(=O)c2c(NCCNCCO)ccc(NCCNCCO)c21 [mitoxantrone] | – | – | – | – | – | – | equals it
3 | Nc1ccn([C@@H]2O[C@H](CO)[C@@H](O)C2(F)F)c(=O)n1 [gemcitabine, 2′-deoxy-2′,2′-difluorocytidine monohydrochloride (β-isomer), reference compound] | – | – | – | No significant toxicity | retarded tumor growth to a similar extent | – | –
